Measured values reported in patent US8288374B2, “Medicinal composition containing benzo[a]phenoxazine compound as the active ingredient for prevention or treatment of protozoal disease” (Hoshi University, priority 2008, dated 2012).
≈ marks a conversion by molar mass, not a printed value. Where two headings read alike, the source gives them in different places.

Legend:
Assay type in all cases: cell-based
[1] = system: Leishmania donovani (MHOM/ET/67/L82 strain); assay: Leishmania protozoa growth inhibition screening test
Method: In the present experiment, Leishmania donovani (MHOM/ET/67/L82 strain) was used. Protozoa was subcultured in Syrian Golden hamster, from which an amastigote was obtained. In the experiment, SM medium supplemented with 10% heat-treated bovine fetal serum was used, which was adjusted to pH 5.4, and cultured in an atmosphere of 5% CO2 concentration, at 37° C.
The compounds of the present invention to be used in the present test and the positive control drug (miltefosine) were dissolved in DMSO to make a test solution of a predetermined concentration.
After adding a medium containing a predetermined number of protozoa to wells of a 96-well culture'plate and pre-treating, concentration of the amastigote was measured with CASY cell analysis system (Scharfe, Germany). Then, test solution containing a drug of a predetermined concentration or a drug-free DMSO was added. Test solutions were taken by duplicates.
After culturing the culture plate for 72 hours in an incubator, growth inhibition activity was tested. Test was conducted as follows. 10 μL of Alamar Blue aqueous solution was added to each well, and the resultant was further cultured for 2 hours. Next, the culture plate was placed on a fluorescent micro-plate reader (Spectramax Gemeni XS; US Molecular Device), radiated at an excited wavelength of 536 nm. Fluorescent intensity was measured at 588 nm, and infection rate of leishmania protozoa of the test solution added group and control was calculated.
(§1) Growth inhibition rate (%)={1−(b−a)/(c−a)}×100 • a: early infection rate • b: infection rate when test solution was added • c: infection rate of the control

Plasmodium falciparum K1 = assay: Chloroquine resistant-Plasmodium falciparum growth inhibition screening test; details: for Selective toxicity: EC50 against rat L6 cells / EC50 against P. falciparum K1; for EC50: Plasmodium falciparum, Table 2, unit inferred, chloroquine-resistant K1 strain, read-out: P. falciparum K1
Method: In the present experiment, protozoa of plasmodium falsiparum K1 strain was used. RPMI-1640 medium sterilized with a filter to which human serum was added to be 5%, was used in the experiment. Malarial parasites were cultured under 3% O2 concentration, 4% CO2 concentration, 93% N2 concentration, and at a temperature of 37° C.
The compounds of the present invention to be used in the present test and the positive control drug (chloroquine) were dissolved in DMSO to make a test solution of a predetermined concentration. Cultured malaria parasite infected-erythrocytes were collected by centrifugation, and diluted with non-infected erythrocyte so that the early infection rate was 0.15%. Hematocrit level at that time was 2.5%.
200 μL of malaria infected solution was added to wells of a 96-well culture plate, and adjusted by adding a test solution containing drug of a predetermined concentration or a drug-free DMSO. Test solutions were taken by duplicates.
[…] […] Radiation intensity was measured with a beta plate liquid scintillation counter (Wallac), and malarial parasite infection rates of the test solution added group and the control group were calculated.
Growth inhibition rate (%)={1−(b−a)/(c−a)}×100 • a: early infection rate • b: infection rate when test solution was added • c: infection rate of the control 3. Growth Inhibition Test of Rat L6 Cells
Antimalarial activity of a sample was estimated from EC50 values of the sample against chloroquine resistant-Plasmodium falciparum and rat L6 cells. […] It means that the larger the value of the selection toxity, the less the risk of the side effect is. Chemotherapy index=(EC50 value of a sample against rat L6 cells)/(EC50 value of a sample against chloroquine resistant-Plasmodium falsiparum)

[2] = system: Trypanosoma brucei rhodesiense (STIB 900 strain); assay: African trypanosome protozoa growth inhibition screening test
Method: In the present experiment, protozoa of Tripanosoma brucei rhodensiense (STIB 900 Strain), a trypomastigote living in blood stream, was used. The medium used in the experiment was a MEM medium which was sterilized with a filter and supplemented with 25 mM N-2-hydroxyeihylpiperazine-2-ethansulfonic acid (HEPES), 1 g/L glucose, 1% MEM non-essential amino acid, 0.2 mM 2-mercaptoethanol, 2 mM sodium pyruvate, 0.1 mM hypoxanthine, and 15% heat-treated horse serum. The protozoa was cultured in an atmosphere of CO2 concentration 5%, at a temperature of 37° C.
The compounds of the present invention to be used in the present test and the positive control drug (melarsoprol) were dissolved in dimethylsulfoxide (DMSO) to make a test solution of a predetermined concentration.
A medium containing 8×10^3 protozoa, and a test solution containing a drug of a predetermined concentration of a drug-free DMSO were added to wells of a 96-well culture plate, and subsequently, medium was added so that the amount in each well becomes 100 μL. Test solutions were taken by duplicates.
After culturing the culture plate for 72 hours in an incubator, growth inhibition activity was tested. Test was conducted as follows. 10 μL of Alamar Blue aqueous solution was added to each well, and the resultant was further cultured for 2 hours. Next, the culture plate was placed on a fluorescent micro-plate reader (Spectramax Gemeni XS; US Molecular Device), radiated at an excited wavelength of 536 nm. Fluorescent intensity was measured at 588 nm, to calculate the trypanosome protozoa infected rate of the test solution added-group, and of the control group.
as §1

[3] = Table 6, unit inferred, read-out: Leishmania donovani
[4] = Table 6, unit inferred, read-out: Trypanosoma brucei rhod.

Row | SMILES | EC50 ([1]; Leishmania donovani, Table 5, amastigotes, 72 hours, Alamar Blue, read-out: 50% Growth inhibition concentration Leishmania donovani) | Selective toxicity (Plasmodium falciparum K1) | EC50 ([2]; Table 5, 72 hours, Alamar Blue, read-out: 50% Growth inhibition concentration Trypanosoma brucei rhod.) | EC50 [1, 3] | EC50 (Plasmodium falciparum K1) | EC50 [2, 4]
1 | CCN(CC)c1ccc2nc3c4ccccc4c(=Nc4ccc5ccccc5n4)cc-3oc2c1 [Compound 1H, N,N-Diethyl-5-(quinolin-2-ylimino)-5H-benzo[a]phenoxazin-9-amine] | 1.25 µg/mL (≈ 2.81 µM) | 2513 | 4.6 µg/mL (≈ 10.3 µM) |  |  | 
2 | CCN(CCNS(C)(=O)=O)c1cc(C)c2nc3c4ccccc4c(=Nc4ccncc4)cc-3oc2c1 [Compound 1R, N-Ethyl-N-(2-methansulfonamidylethyl)-11-methyl-5-(pyridine-4-ylimino)-5H-benzo[a]phenoxazin-9-amine] |  | 885 |  | 3.92 µg/mL (≈ 7.81 µM) | 0.009 µg/mL (≈ 0.0179 µM) | 5.34 µg/mL (≈ 10.7 µM)
3 | CCN(CCNS(C)(=O)=O)c1cc(C)c2nc3c4ccccc4c(=Nc4ccccn4)cc-3oc2c1 [Compound 1S, N-Ethyl-N-(2-methansulfonamidylethyl)-11-methyl-5-(pyridine-2-ylimino)-5H-benzo[a]phenoxazin-9-amine] |  | 43 |  | 2.09 µg/mL (≈ 4.17 µM) | 0.007 µg/mL (≈ 0.014 µM) | 0.714 µg/mL (≈ 1.42 µM)
